Drawing on PubChem BioAssay AID608 (Sanford-Burnham Center for Chemical Genomics, 2007), this text covers Kd for 72 compounds.

Each structure is given as a SMILES string. Calls of active or inactive are those of the source. No rule for the calls is given here.

Chain of Peptidyl-prolyl cis-trans isomerase FKBP1A (Homo sapiens) (P62942 whole entry, looked up): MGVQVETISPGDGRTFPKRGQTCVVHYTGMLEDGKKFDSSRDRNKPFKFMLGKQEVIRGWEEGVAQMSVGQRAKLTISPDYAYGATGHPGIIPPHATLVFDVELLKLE

The assay addresses Peptidyl-prolyl cis-trans isomerase FKBP1A (Homo sapiens) (UniProt P62942). As to the kind of experiment: FKBP12 binders, biophysical, NMR detection (AID 608). The conditions noted are these: NMR binding, purified FKBP12.
On to `COc1c(O)cc(O)cc1O`, for which the Kd was > 4 mM (inactive).

Consider `NC(=O)c1oc2ccccc2c1N`, for which the Kd was > 4 mM (inactive).

On to `COC(=O)c1noc(-c2ccc(OC)cc2)n1`, for which the Kd is > 4 mM (inactive).

On to `Cc1cc(=O)n(CC(C)C)c(O)c1C#N`, for which the Kd was > 4 mM (inactive).

With `CC(=O)C1CCC2C3CCC4C[C@H](O)CCC4(C)C3C[C@H](O)C12C` (some centres not stated), the Kd was > 4 mM (inactive).

Consider `Cc1cc(C)c(NC(=O)CN2CCC(O)CC2)c(C)c1`, for which the Kd is > 4 mM (inactive).

`S=C=NCc1ccccc1`: the Kd was > 4 mM (inactive).

For the compound `Cn1c(CN2CC(c3ccccc3)CC2=O)n[nH]c1=S` (configuration not stated), the Kd was > 4 mM (inactive).

For `NC(N)=NOCC[C@H](N)C(=O)O`, the Kd was > 4 mM (inactive).

As to `Cc1[nH]c2ccccc2c1CN(C)C`, the Kd was > 4 mM (inactive).

As to `O=C1CCN(c2ccccc2)N1`, the Kd was > 4 mM (inactive).

`O=C(Nc1ccon1)c1cccc(Cl)c1`: the Kd is > 4 mM (inactive).

For the compound `O=C(O[C@@H]1Cc2c(O)cc(O)cc2O[C@@H]1c1cc(O)c(O)c(O)c1)c1cc(O)c(O)c(O)c1`, the Kd was > 4 mM (inactive).

On to `CCOc1ccc(C)cc1S(=O)(=O)n1ccc(C)n1`, for which the Kd was > 4 mM (inactive).

With `CC(C)NC(=O)c1cc(=O)n(C)c(=O)n1C`, the Kd is > 4 mM (inactive).

Take `COc1ccccc1NC(N)=S`: the Kd was > 4 mM (inactive).

Regarding `CS(=O)(=O)c1nncn1-c1ccccc1`, the Kd was > 4 mM (inactive).

On to `Cn1nnc2cc(C(=O)NCc3ccco3)ccc21`, for which the Kd was > 4 mM (inactive).

Consider `O=c1[nH]c2sc3c(c2c2ncnn12)CCCC3`, for which the Kd was > 4 mM (inactive).

For `Nc1ccc(OC(F)(F)F)cc1`, the Kd was > 4 mM (inactive).

Regarding `CCSc1nnc2[nH]c(=O)cc(C)n12`, the Kd was > 4 mM (inactive).

Take `CC(=O)Nc1sccc1C(N)=O`: the Kd was > 4 mM (inactive).

Take `Cc1nnc(N2CCN(Cc3ccccc3)CC2)[nH]c1=O`: the Kd was > 4 mM (inactive).

Turning to `O=C(Cc1cccs1)Nc1ccon1`, the Kd is > 4 mM (inactive).

On to `O=C(NC1CSCC1O)c1ccccc1` (configuration not stated), for which the Kd is > 4 mM (inactive).

On to `Cc1ccc(C2NS(=O)(=O)N=C2N)cc1` (configuration not stated), for which the Kd is > 4 mM (inactive).

With `Nc1ncnc(NC2CCS(=O)(=O)C2)c1[N+](=O)[O-]` (configuration not stated), the Kd was > 4 mM (inactive).

With `CC(C)c1ccc(SCC(=O)N2CCOCC2C(=O)OCCCc2cccnc2)cc1` (configuration not stated), the Kd was 0.0056 mM.

`Nc1ccc2nccnc2c1`: the Kd was > 4 mM (inactive).

`Cc1ccc(N2NC(=O)CC2=O)cc1C`: the Kd was > 4 mM (inactive).

As for `N#Cc1cnc(N2CCCCC2)nc1N`, the Kd was > 4 mM (inactive).

Consider `C=C[C@@](C)(O)CCC1C(=C)CCC2[C@@](C)(CO)CCC[C@]12C` (some centres not stated), for which the Kd was > 4 mM (inactive).

As to `CS(=O)(=O)N1CCC(C(=O)NC2CCCC2)CC1`, the Kd is > 4 mM (inactive).

Take `O=C(CSc1ncnc2ccccc12)NCCCO`: the Kd was > 4 mM (inactive).

Regarding `N#Cc1cccc(Cn2nnc(-c3ccccc3)n2)c1`, the Kd is > 4 mM (inactive).

`O=C(/C=C/c1ccccc1)c1ccc(O)cc1`: the Kd is > 4 mM (inactive).

Turning to `Cc1cc(NC(=O)c2c(F)c(F)c(F)c(F)c2F)no1`, the Kd is > 4 mM (inactive).

Take `c1ccc(Cn2c(Nn3cnnc3)nc3ccccc32)cc1`: the Kd is > 4 mM (inactive).

Take `CCn1ncc(Cl)c1C(=O)Nc1ccncc1`: the Kd was > 4 mM (inactive).

`CSc1ccccc1NC(=O)c1c(C)noc1C`: the Kd is > 4 mM (inactive).

Regarding `CC1SC(=NC(=O)c2ccco2)NC1=O` (configuration not stated), the Kd was > 4 mM (inactive).

`COc1ccccc1-c1noc(-c2ccncc2)n1`: the Kd was > 4 mM (inactive).

On to `COc1cc([C@@H]2c3cc4c(cc3[C@H](O)[C@H]3COC(=O)[C@H]23)OCO4)cc(OC)c1OC`, for which the Kd was > 4 mM (inactive).

Turning to `Cc1ccc(N2CCN(C(=O)c3ccccc3)CC2)c(C)c1`, the Kd was > 4 mM (inactive).

In the case of `Cc1ccc2c(C)c(C(=O)Nc3nnc(C)s3)oc2c1`, the Kd was > 4 mM (inactive).

As to `CCc1ccccc1NC(=O)c1ccoc1C`, the Kd is > 4 mM (inactive).

For `O=C(O)CC[N+](=O)[O-]`, the Kd was > 4 mM (inactive).

On to `CC(=O)NC(=S)Nc1cccc(C(=O)O)c1C`, for which the Kd was > 4 mM (inactive).

Consider `NC(=O)/C=C/C(=O)Nc1ccccc1`, for which the Kd is > 4 mM (inactive).

Consider `CC(C)=CC(=O)Nc1ccccc1Br`, for which the Kd was > 4 mM (inactive).

With `COc1c2ccoc2cc2oc(C)cc(=O)c12`, the Kd was > 4 mM (inactive).

On to `C[C@H]1OC(O[C@H]2[C@@H](O)CC(O[C@H]3[C@@H](O)C[C@H](O[C@H]4CC[C@]5(C)C6CC[C@]7(C)[C@@H](C8=CC(=O)OC8)[C@@H](O)C[C@]7(O)[C@@H]6CC[C@@H]5C4)O[C@@H]3C)O[C@@H]2C)C[C@H](O)C1O` (some centres not stated), for which the Kd was > 4 mM (inactive).

Regarding `CC(C)C(C)/C=C/C(C)[C@H]1CCC2C3=CCC4CC(=O)CC[C@]4(C)C3CC[C@@]21C` (some centres not stated), the Kd was > 4 mM (inactive).

In the case of `NC1=C(c2ccccc2)C(=O)c2ccccc21`, the Kd is > 4 mM (inactive).

Take `Cn1c(=O)c2c([nH]c(=O)n2C)n(C)c1=O`: the Kd was > 4 mM (inactive).

On to `CN=C(C)c1c(O)n(C)c(=O)n(C)c1=O`, for which the Kd is > 4 mM (inactive).

`O=C(Cc1cccs1)Nc1nncs1`: the Kd is > 4 mM (inactive).

Consider `Nc1ncnc(NCCCO)c1[N+](=O)[O-]`, for which the Kd is > 4 mM (inactive).

As to `CCOC(=O)C1C(C=C(C)C)C1(C)C` (configuration not stated), the Kd was > 4 mM (inactive).

As for `CCCCCC1C(=O)CCC1CC(=O)O` (configuration not stated), the Kd is > 4 mM (inactive).

For `CC12OC(=O)CC3C(C)(C)[C@H](O)C=C[C@]3(C)C1CC[C@]1(C)C2=CC(=O)O[C@H]1c1ccoc1` (some centres not stated), the Kd is > 4 mM (inactive).

With `CC(=O)CC1(O)C(=O)Nc2ccccc21` (configuration not stated), the Kd was > 4 mM (inactive).

In the case of `C[C@@H]1CC[C@H]2[C@@H](C)C(=O)O[C@@H]3OC4(C)CC[C@@H]1[C@]32OO4`, the Kd is > 4 mM (inactive).

`OC[C@H]1O[C@@](CO)(O[C@@H]2O[C@H](CO)[C@@H](O)[C@H](O)[C@H]2O)[C@@H](O[C@@H]2O[C@H](CO)[C@@H](O)[C@H](O)[C@H]2O)[C@@H]1O`: the Kd was > 4 mM (inactive).

Take `Cc1noc(C)c1C(=O)N1CCC2(CC1)OCCO2`: the Kd was > 4 mM (inactive).

Regarding `CN1CCC(N(C)C2CCN(C)CC2)CC1`, the Kd is > 4 mM (inactive).

`COc1cccc(C(=O)Nc2c(C)n[nH]c2C)c1`: the Kd is > 4 mM (inactive).

Turning to `CC1=CC2C(C(C)C)CCC(C)(O)C2CC1` (configuration not stated), the Kd was > 4 mM (inactive).

As to `COC(=O)Cc1cc(=O)n(-c2ccccc2)[nH]1`, the Kd was > 4 mM (inactive).

For the compound `Cc1cccc(NC(=O)NC(N)=O)c1`, the Kd was > 4 mM (inactive).

On to `Nc1c(Nc2ccccc2)c2ccccc2oc1=O`, for which the Kd is > 4 mM (inactive).

As for `CC1(C)C(=O)C=C[C@@]2(C)C1C=C[C@]1(C)C2CC[C@@]2(C)[C@H](c3ccoc3)OC(=O)C3OC321` (some centres not stated), the Kd was > 4 mM (inactive).

As usually defined, the Kd is a measure of binding affinity in units of concentration.
